US20050112573A1, “Method of detecting toxic substance” (priority 2001, published 2005)

Tested on: yeast genes (level of expressed mRNA)
Test: DNA chip analysis of expressed mRNA of yeast genes after 2 h culture with a toxic chemical substance
Assay type: cell-based, Saccharomyces cerevisiae S288C
Procedure: Yeast (Saccharomyces cerevtisiae S288C (α SUC2mal mel gap2 CUP1)) were cultured at 25° C. on YPD medium (yeast extract 1%, polypepton 2%, glucose 2%). One of toxic chemical substances was added to the cell at logarithmic growth phase, and the cell was further cultured for two hours. Cell was cultured without any chemical substance in the same condition, and was used as control. Concentrations of the chemical substances were defined to inhibit the growth of the yeast but not lead to death.
After the completion of cultivation, the culture was centrifuged to collect the cells. To the cells, sodium acetate buffer (50 mM sodium acetate, 10 mM EDTA, 1% SDS) was added, and the mixture was shaken at 65° C. for five minutes, followed by returning to room temperature, and obtaining the supernatant, which procedure was repeated two times. To the supernatant, ½ amount of a solution of phenol/chloroform was added, and the mixture was centrifuged to give a supernatant, which was added with an equal amount of chloroform, and the mixture was centrifuged to give a supernatant. To the supernatant, an equal amount of isopropanol containing 0.3 M sodium acetate was added, and the mixture was allowed to stand at room temperature for 30 minutes, after which the mixture was centrifuged to give a sediment of the whole RNAs. Seventy % ethanol was added to the sediment, and the mixture was again centrifuged to give a sediment, which was then dried and dissolved in water. mRNA was isolated from the whole RNAs as followings. In view of the fact that a poly A chain is attached to the 3′ terminus of mRNA, a polynucleotide having a poly T structure which was immobilized on the surface of latex beads was used to trap the mRNA, and then the mRNA was washed and eluted with spine column (Oligotex-dT30<Super>mRNA Purification Kit, Takara). Reverse transcription of the mRNA was conducted with a reverse transcriptase (Super Script II Reverse Transcriptase; catalogue No. 18064-014, GibcoBRL) using fluorescence-labeled nucleotides to give cDNAs that were introduced with Cy3-dUTP or Cy5-dUTP during the reverse transcription.
The labeled cDNAs were dissolved in TE buffer (10 mM Tris-HCl/1 mM EDTA, pH8.0), and the solution was dropped on the DNA chip containing the whole genes of yeast (DNA Chip Research Inc. Japan) so that the cDNAs were hybridized on the DNA chip at 65° C. for over 12 hours. The fluoresces intensity of the DNA chip was read with a scanner, and the ratio relative to the fluorescence intensity resulting from the absence of chemical substance was estimated as the following, which is shown in Tables 1 to 9: [formula]
In the Tables, “Intensity” indicated in the rightmost column is a value of the level of expressed mRNA of each gene in control cells as divided by the average level of the expressions of the whole genes.

## C[S+](C)[O-] [(15), dimethylsulfoxide]
Gene YML041C
  The level of expressed mRNA in the presence of chemical substance/absence: YML041C: 1.0
Gene YML079W
  The level of expressed mRNA in the presence of chemical substance/absence: YML079W: 0.3
Gene YML110C
  level of expressed mRNA in the presence of chemical substance/in its absence: 1.3
Gene YML118W
  The level of expressed mRNA in the presence of chemical substance/absence: YML118W: 2.2
Gene YMR068W
  The level of expressed mRNA in the presence of chemical substance/absence: YMR068W: 2.2
Gene YMR071C
  The level of expressed mRNA in the presence of chemical substance/absence: YMR071C: 0.8
Gene YMR105C
  level of expressed mRNA in the presence of chemical substance/in its absence: 0.9
Gene YMR114C
  The level of expressed mRNA in the presence of chemical substance/absence: YMR114C: 1.2
Gene YMR115W
  The level of expressed mRNA in the presence of chemical substance/absence: YMR115W: 1.2
Gene YMR160W
  The level of expressed mRNA in the presence of chemical substance/absence: YMR160W: 1.5
Gene YMR189W
  level of expressed mRNA in the presence of chemical substance/in its absence: 5.6
Gene YMR258C
  The level of expressed mRNA in the presence of chemical substance/absence: YMR258C: 0.6
Gene YMR271C
  level of expressed mRNA in the presence of chemical substance/in its absence: 0.6
Gene YMR272C
  level of expressed mRNA in the presence of chemical substance/in its absence: 1.1
Gene YMR296C
  level of expressed mRNA in the presence of chemical substance/in its absence: 6.7
Gene YNL012W
  level of expressed mRNA in the presence of chemical substance/in its absence: 1.6
Gene YNL026W
  The level of expressed mRNA in the presence of chemical substance/absence: YNL026W: 0.8
Gene YNL037C
  level of expressed mRNA in the presence of chemical substance/in its absence: 0.9
Gene YNL045W
  level of expressed mRNA in the presence of chemical substance/in its absence: 0.8
Gene YNL058C
  The level of expressed mRNA in the presence of chemical substance/absence: YNL058C: 2.2
Gene YNL063W
  The level of expressed mRNA in the presence of chemical substance/absence: YNL063W: 0.7
Gene YNL104C
  level of expressed mRNA in the presence of chemical substance/in its absence: 2.5
Gene YNL106C
  level of expressed mRNA in the presence of chemical substance/in its absence: 3.3
Gene YNL130C
  level of expressed mRNA in the presence of chemical substance/in its absence: 2.5
Gene YNL169C
  level of expressed mRNA in the presence of chemical substance/in its absence: 3.4
Gene YNL176C
  The level of expressed mRNA in the presence of chemical substance/absence: YNL176C: 0.8
Gene YNL181W
  The level of expressed mRNA in the presence of chemical substance/absence: YNL181W: 1.0
Gene YNL191W
  The level of expressed mRNA in the presence of chemical substance/absence: YNL191W: 1.0
Gene YNL194C
  The level of expressed mRNA in the presence of chemical substance/absence: YNL194C: 0.5
Gene YNL200C
  The level of expressed mRNA in the presence of chemical substance/absence: YNL200C: 0.8
Gene YNL212W
  The level of expressed mRNA in the presence of chemical substance/absence: YNL212W: 0.9
Gene YNL231C
  level of expressed mRNA in the presence of chemical substance/in its absence: 0.9
Gene YNL253W
  The level of expressed mRNA in the presence of chemical substance/absence: YNL253W: 0.5
Gene YNL265C
  The level of expressed mRNA in the presence of chemical substance/absence: YNL265C: 0.6
Gene YNL276C
  The level of expressed mRNA in the presence of chemical substance/absence: YNL276C: 0.5
Gene YNL322C
  level of expressed mRNA in the presence of chemical substance/in its absence: 3.7
Gene YNR002C
  level of expressed mRNA in the presence of chemical substance/in its absence: 1.0
Gene YNR019W
  level of expressed mRNA in the presence of chemical substance/in its absence: 1.6
Gene YNR033W
  level of expressed mRNA in the presence of chemical substance/in its absence: 1.3
Gene YNR051C
  The level of expressed mRNA in the presence of chemical substance/absence: YNR051C: 1.2
Gene YNR059W
  level of expressed mRNA in the presence of chemical substance/in its absence: 1.0
Gene YOL026C
  The level of expressed mRNA in the presence of chemical substance/absence: YOL026C: 0.9
Gene YOL030W
  The level of expressed mRNA in the presence of chemical substance/absence: YOL030W: 0.9
Gene YOL058W
  level of expressed mRNA in the presence of chemical substance/in its absence: 2.7
Gene YOL126C
  level of expressed mRNA in the presence of chemical substance/in its absence: 1.4
Gene YOL143C
  level of expressed mRNA in the presence of chemical substance/in its absence: 1.0
Gene YOL153C
  level of expressed mRNA in the presence of chemical substance/in its absence: 1.2
Gene YOL157C
  level of expressed mRNA in the presence of chemical substance/in its absence: 1.1
Gene YOR022C
  The level of expressed mRNA in the presence of chemical substance/absence: YOR022C: 0.8
Gene YOR087W
  The level of expressed mRNA in the presence of chemical substance/absence: YOR087W: 0.8
Gene YOR088W
  The level of expressed mRNA in the presence of chemical substance/absence: YOR088W: 0.8
Gene YOR099W
  level of expressed mRNA in the presence of chemical substance/in its absence: 1.5
Gene YOR130C
  level of expressed mRNA in the presence of chemical substance/in its absence: 1.0
Gene YOR136W
  level of expressed mRNA in the presence of chemical substance/in its absence: 1.2
Gene YOR138C
  The level of expressed mRNA in the presence of chemical substance/absence: YOR138C: 1.0
Gene YOR155C
  The level of expressed mRNA in the presence of chemical substance/absence: YOR155C: 0.9
Gene YOR253W
  The level of expressed mRNA in the presence of chemical substance/absence: YOR253W: 1.1
